For data set [1] the following is noted: Rabbit, 0.5%, 50 μL, 250 μg; Sigurdsson et al. 2007; cited from earlier work.
Data set [2] deals with CNV induced in sub-retina tissues. The experiment in a line: Mouse laser-induced CNV model, CNV area by FITC-dextran fluorescence. In kind it is in vivo, C57BL/6J mice. The following applies: for Average CNV area (%): n = 10, day 7, vehicle = 100. How it is done: Eyes of C57BL/6J mice were laser irradiated, and CNV were induced in sub-retina tissues in the eyes. […] In 7 days after the laser irradiation, a FITC-dextran solution was administered to the tail vein. The eyeballs were removed under euthanasia, and the removed eyeballs were fixed with 4% paraformaldehyde phosphate buffer. The cornea, iris and lens were excised, and retinal tissues other than retinal pigment epithelium cells were stripped using a microspacer. The optic cups were divided into 4 to 6 sections using a corneal microscissor, and they were placed on a slide glass. […] The CNV areas were quantified using ImageJ (TABLES 11-1 and 11-2; Image software publicly available by NIH).

Data set [3] concerns Neovascularization in retina of oxygen-induced retinopathy rat models. The experiment in a line: Oxygen-induced retinopathy rat model, capillaries counted in histology sections. It is filed as in vivo, Sprague-Dawley rat. The following applies: vehicle only 16.3.
Data set [4] is described as follows: Retina exposure level of rifampicin after topical eye drops (LC/MS). The following applies: rat, topical eye drops 0.25% rifampicin (Ex. 1A), average of n = 3. In kind it is in vivo, Sprague-Dawley rats.
Protocol: The remaining two rats received the same application, but 10 drops of the eye drops, in each eye under isoflurane sedation. A single drop contained 5 μL of the above-described formulation, and application of each drug drop was carried out with intervals of 30 minutes. After the eye drop application, the retina was excised from each rat under a dissection microscope. In addition, “non-treated” negative controls were used, and the retina was excised from two rats without performing any treatments on the rats. The retina was placed in a 1.5-ml microcentrifuge tube (1 retina/tube), and was fully washed with DPBS. After completion of the washing procedures, the retinal tissues in the microcentrifuge tube were frozen in dry ice, and were then preserved for quantification by LC/MS analysis.
At time points of 1 hour, 3 hours, and 7 hours after the application of the eye drops, the retinal tissues were excised from the rats under a dissection microscope. In addition, “non-treated” negative controls were used, and the retina was excised from one rat without performing any treatments on the rats. The retina was placed in a 1.5-ml microcentrifuge tube (1 retina/tube), and was fully washed with DPBS. After completion of the washing procedures, the retinal tissues in the microcentrifuge tube were frozen in dry ice, and were then preserved for quantification by LC/MS analysis. […]
The nature of data set [5]: Mouse pharmacokinetics after SC injection, sclera+sub-retina complex (LC/MS).
Protocol: This effective dosage and administration route was evaluated in dose escalation studies by using the mouse laser-induced CNV model. […] In 1 hr, 3 hr, 6 hr, and 18 hr after the SC injection, eyeballs were extracted. Tissue from the retina and tissue from the sclera+sub-retina complex were isolated and extracted. These tissues were immediately frozen in liquid nitrogen. The tissue was subjected to LC/MS analysis for quantitation. The detection limit was 0.25 ng/g tissue.

Structures are written as SMILES. Marks after values point to notes of the source that are not given here.

As for `C[C@@H]1C[C@H]2[C@@H]3CCC4=CC(=O)C=C[C@]4(C)[C@@]3(F)[C@@H](O)C[C@]2(C)[C@@]1(O)C(=O)CO` [Dexamethasone], the “Drug amount detected in retina” value in data set [1] is recorded as “About 33 ng/1 g ng/1 g of retinal tissues”.
`CO[C@H]1/C=C/O[C@@]2(C)Oc3c(C)c(O)c4c(O)c(c(/C=N/N5CCN(C)CC5)c(O)c4c3C2=O)NC(=O)/C(C)=C\C=C\[C@H](C)[C@H](O)[C@@H](C)[C@@H](O)[C@@H](C)[C@H](OC(C)=O)[C@@H]1C` [Rifampicin, rifampicin]: the “Dosage that significantly inhibited neovascularization (effective dosage)” value in data set [2] (SC injection, mouse laser-induced CNV model) is on record as 0.7 mg/kg. For the same compound, the “Average CNV area (%)” value was determined as 90.17% in data set [2] (SC once daily 0.2 mg/kg, P >0.05 (TABLE 11-1)); 74.78% in data set [2] (SC once daily 0.7 mg/kg, P 0.003 (TABLE 11-2)); 81.00% in data set [2] (SC once daily 0.7 mg/kg, P 0.045 (TABLE 11-1)); 78.33% in data set [2] (SC once daily 2 mg/kg, P 0.011 (TABLE 11-2)). The “Average numbers of capillaries in high power field per eye” value in data set [3] (0.25% rifampicin topical eye drop (Ex. 1A), three times daily P15-P19, n = 3, P value = 0.0058) is 7.78; in data set [3] (0.5% rifampicin SC injection (Ex. 6A), 20 mg/kg once a day P15-P19, n = 3, P value = 0.0102), 9.28. Further, the “Rifampicin extracted from retina” value is recorded as 1,288* ng/1 g of tissues in data set [4] (3 drops of 5 μL at 30 min intervals) and 2,939* ng/1 g of tissues in data set [4] (10 drops of 5 μL at 30 min intervals). Moreover, the “Ave. rifampicin delivered to sclera + sub-retina complex” value in data set [5] (SC 0.7 mg/kg, 18 hr, detection limit 0.25 ng/g tissue) is on record as “BDL”. Moreover, the “Share of rifampicin in sub-retina+sclera complex delivered to the sub-retina” value in data set [5] (SC injection) is reported as “approximately 70%”.
